test: Effective concentration that reduces HIV-induced cytopathic effect by 50% was determined by reverse transcriptase (RT) assay.

In order of rising EC50:
1. Cc1cn([C@H]2C[C@H](N=[N+]=[N-])[C@@H](CO)O2)c(=O)[nH]c1=O [1-((2R,4S,5S)-4-Azido-5-hydroxymethyl-tetrahydro-furan-2-yl)-5-methyl-1H-pyrimidine-2,4-dione]  10 nM
2. Cc1cn([C@H]2C=C[C@@H](CO)O2)c(=O)[nH]c1=O [2',3'-didehydro-3'-deoxythymidine]  50 nM
3. Cc1cn(C2C=CC(COP(=O)(O)OCC3C=CC(n4cc(C)c(=O)[nH]c4=O)O3)O2)c(=O)[nH]c1=O (stereo not given) [Phosphoric acid bis-[5-(5-methyl-2,4-dioxo-3,4-dihydro-2H-pyrimidin-1-yl)-2,5-dihydro-furan-2-ylmethyl] ester]  50 nM
4. CCCCCCCCCCCCCCCC(=O)OCC1C=CC(n2cc(C)c(=O)[nH]c2=O)O1 (stereo not given) [Hexadecanoic acid 5-(5-methyl-2,4-dioxo-3,4-dihydro-2H-pyrimidin-1-yl)-2,5-dihydro-furan-2-ylmethyl ester]  80 nM
5. CCCCCCCCCCCCCCCCOP(=O)(O)OCC1C=CC(n2cc(C)c(=O)[nH]c2=O)O1 (stereo not given) [Phosphoric acid hexadecyl ester 5-(5-methyl-2,4-dioxo-3,4-dihydro-2H-pyrimidin-1-yl)-2,5-dihydro-furan-2-ylmethyl ester]  200 nM

Source: BindingDB's records for doi:10.1021/jm00059a006 (Ura Cnrs 1309, 1993)
